In the NIST ThermoML archive (doi:10.1021/je049671t):
± gives the expanded uncertainty stated by the source.

Test: xn = mol fraction of the nth substance listed
Conditions: Liquid, Vibrating tube method

CCCC [butane] + CCC
Conditions	mass density [kg/m3]
239.04 K, 463.7 kPa, x2 = 0.25	622.82 ± 0.26
239.04 K, 943.7 kPa, x2 = 0.25	623.31 ± 0.27
239.04 K, 1507.7 kPa, x2 = 0.25	623.9 ± 0.27
239.04 K, 1962.4 kPa, x2 = 0.25	624.35 ± 0.27
239.04 K, 2486.4 kPa, x2 = 0.25	624.89 ± 0.28
239.04 K, 3058.3 kPa, x2 = 0.25	625.46 ± 0.28
239.04 K, 3473.7 kPa, x2 = 0.25	625.88 ± 0.29
239.04 K, 3994 kPa, x2 = 0.25	626.39 ± 0.29
239.04 K, 4514.6 kPa, x2 = 0.25	626.9 ± 0.3
239.04 K, 4950 kPa, x2 = 0.25	627.33 ± 0.3
239.04 K, 5524.3 kPa, x2 = 0.25	627.9 ± 0.31
239.04 K, 6029.4 kPa, x2 = 0.25	628.39 ± 0.31
239.04 K, 6518 kPa, x2 = 0.25	628.86 ± 0.32
239.04 K, 6930.6 kPa, x2 = 0.25	629.26 ± 0.32
240 K, 478.5 kPa, x2 = 0.5	606.78 ± 0.27
240 K, 514.9 kPa, x2 = 0.75	589.83 ± 0.27
240 K, 996.7 kPa, x2 = 0.5	607.38 ± 0.27
240 K, 1006.3 kPa, x2 = 0.75	590.44 ± 0.28
240 K, 1479 kPa, x2 = 0.5	607.88 ± 0.28
240 K, 1505.4 kPa, x2 = 0.75	591.03 ± 0.28
240 K, 1962.4 kPa, x2 = 0.5	608.42 ± 0.28
240 K, 2024.2 kPa, x2 = 0.75	591.63 ± 0.29
240 K, 2491.6 kPa, x2 = 0.5	609 ± 0.29
240 K, 2519.5 kPa, x2 = 0.75	592.21 ± 0.29
240 K, 2956 kPa, x2 = 0.5	609.51 ± 0.29
240 K, 3022.7 kPa, x2 = 0.75	592.8 ± 0.3
240 K, 3501.4 kPa, x2 = 0.5	610.09 ± 0.3
240 K, 3519.4 kPa, x2 = 0.75	593.39 ± 0.3
240 K, 3952.5 kPa, x2 = 0.5	610.58 ± 0.3
240 K, 4031.2 kPa, x2 = 0.75	593.97 ± 0.31
240 K, 4493.1 kPa, x2 = 0.5	611.14 ± 0.3
240 K, 4526.8 kPa, x2 = 0.75	594.51 ± 0.31
240 K, 4946.9 kPa, x2 = 0.75	594.99 ± 0.31
240 K, 4972.1 kPa, x2 = 0.5	611.66 ± 0.31
240 K, 5472.1 kPa, x2 = 0.5	612.19 ± 0.31
240 K, 5521.6 kPa, x2 = 0.75	595.64 ± 0.32
240 K, 6000.1 kPa, x2 = 0.5	612.74 ± 0.32
240 K, 6044.8 kPa, x2 = 0.75	596.2 ± 0.33
240 K, 6502.7 kPa, x2 = 0.5	613.25 ± 0.33
240 K, 6539.6 kPa, x2 = 0.75	596.77 ± 0.33
240 K, 6973.1 kPa, x2 = 0.5	613.74 ± 0.33
240 K, 7045.6 kPa, x2 = 0.75	597.3 ± 0.34
260 K, 489.6 kPa, x2 = 0.75	566.44 ± 0.28
260 K, 495.8 kPa, x2 = 0.5	585.02 ± 0.27
260 K, 524.1 kPa, x2 = 0.25	600.69 ± 0.27
260 K, 996.9 kPa, x2 = 0.75	567.21 ± 0.28
260 K, 1001.1 kPa, x2 = 0.5	585.74 ± 0.28
260 K, 1004.9 kPa, x2 = 0.25	601.3 ± 0.27
260 K, 1482.5 kPa, x2 = 0.25	601.91 ± 0.28
260 K, 1504.2 kPa, x2 = 0.75	567.97 ± 0.29
260 K, 1506.4 kPa, x2 = 0.5	586.42 ± 0.28
260 K, 1989.9 kPa, x2 = 0.25	602.54 ± 0.28
260 K, 2003.6 kPa, x2 = 0.75	568.71 ± 0.29
260 K, 2004.6 kPa, x2 = 0.5	587.1 ± 0.29
260 K, 2508.4 kPa, x2 = 0.75	569.45 ± 0.3
260 K, 2517.2 kPa, x2 = 0.5	587.78 ± 0.29
260 K, 2521.3 kPa, x2 = 0.25	603.2 ± 0.29
260 K, 3004 kPa, x2 = 0.25	603.79 ± 0.29
260 K, 3014.9 kPa, x2 = 0.5	588.45 ± 0.3
260 K, 3015.6 kPa, x2 = 0.75	570.19 ± 0.3
260 K, 3449.6 kPa, x2 = 0.25	604.34 ± 0.3
260 K, 3495.5 kPa, x2 = 0.75	570.88 ± 0.31
260 K, 3506 kPa, x2 = 0.5	589.1 ± 0.3
260 K, 4004.5 kPa, x2 = 0.5	589.73 ± 0.31
260 K, 4006.2 kPa, x2 = 0.75	571.62 ± 0.31
260 K, 4007 kPa, x2 = 0.25	605.01 ± 0.3
260 K, 4494.5 kPa, x2 = 0.75	572.27 ± 0.32
260 K, 4511.7 kPa, x2 = 0.25	605.63 ± 0.31
260 K, 4525.9 kPa, x2 = 0.5	590.39 ± 0.31
260 K, 5017.4 kPa, x2 = 0.5	591.03 ± 0.32
260 K, 5017.7 kPa, x2 = 0.25	606.24 ± 0.31
260 K, 5022.8 kPa, x2 = 0.75	573.01 ± 0.32
260 K, 5508.1 kPa, x2 = 0.75	573.69 ± 0.33
260 K, 5512.4 kPa, x2 = 0.25	606.82 ± 0.32
260 K, 5513.7 kPa, x2 = 0.5	591.66 ± 0.32
260 K, 6015.4 kPa, x2 = 0.5	592.29 ± 0.33
260 K, 6034.1 kPa, x2 = 0.25	607.43 ± 0.32
260 K, 6049.2 kPa, x2 = 0.75	574.41 ± 0.34
260 K, 6498.8 kPa, x2 = 0.75	575.04 ± 0.34
260 K, 6503.8 kPa, x2 = 0.25	607.98 ± 0.33
260 K, 6512.1 kPa, x2 = 0.5	592.9 ± 0.33
260 K, 6943 kPa, x2 = 0.75	575.6 ± 0.35
260 K, 6986.6 kPa, x2 = 0.5	593.49 ± 0.34
260 K, 7011.2 kPa, x2 = 0.25	608.56 ± 0.33
280 K, 524.1 kPa, x2 = 0.25	578.3 ± 0.27
280 K, 533.2 kPa, x2 = 0.5	561.24 ± 0.28
280 K, 994.1 kPa, x2 = 0.25	579.05 ± 0.28
280 K, 996.1 kPa, x2 = 0.5	562.05 ± 0.28
280 K, 1496.7 kPa, x2 = 0.25	579.83 ± 0.28
280 K, 1503.2 kPa, x2 = 0.5	562.93 ± 0.29
280 K, 1506.3 kPa, x2 = 0.75	543.19 ± 0.29
280 K, 2004.1 kPa, x2 = 0.5	563.79 ± 0.29
280 K, 2012.9 kPa, x2 = 0.75	544.18 ± 0.3
280 K, 2015.5 kPa, x2 = 0.25	580.63 ± 0.29
280 K, 2501.9 kPa, x2 = 0.5	564.62 ± 0.3
280 K, 2503.9 kPa, x2 = 0.25	581.38 ± 0.29
280 K, 2509.6 kPa, x2 = 0.75	545.11 ± 0.31
280 K, 3000.3 kPa, x2 = 0.25	582.13 ± 0.3
280 K, 3006.4 kPa, x2 = 0.5	565.46 ± 0.31
280 K, 3018.4 kPa, x2 = 0.75	546.06 ± 0.31
280 K, 3502.3 kPa, x2 = 0.25	582.88 ± 0.3
280 K, 3504.2 kPa, x2 = 0.5	566.28 ± 0.31
280 K, 3513.7 kPa, x2 = 0.75	546.96 ± 0.32
280 K, 4015 kPa, x2 = 0.25	583.63 ± 0.31
280 K, 4015 kPa, x2 = 0.75	547.86 ± 0.32
280 K, 4016.7 kPa, x2 = 0.5	567.11 ± 0.32
280 K, 4505.3 kPa, x2 = 0.25	584.35 ± 0.31
280 K, 4508.2 kPa, x2 = 0.75	548.75 ± 0.33
280 K, 4524.6 kPa, x2 = 0.5	567.93 ± 0.32
280 K, 4984.9 kPa, x2 = 0.75	549.59 ± 0.33
280 K, 4998.7 kPa, x2 = 0.5	568.69 ± 0.33
280 K, 5019.7 kPa, x2 = 0.25	585.09 ± 0.32
280 K, 5502.7 kPa, x2 = 0.25	585.78 ± 0.32
280 K, 5506.3 kPa, x2 = 0.5	569.47 ± 0.33
280 K, 5508.8 kPa, x2 = 0.75	550.5 ± 0.34
280 K, 6005.9 kPa, x2 = 0.25	586.49 ± 0.33
280 K, 6009.4 kPa, x2 = 0.5	570.25 ± 0.34
280 K, 6043.7 kPa, x2 = 0.75	551.39 ± 0.35
280 K, 6507.4 kPa, x2 = 0.5	571.01 ± 0.34
280 K, 6517.1 kPa, x2 = 0.25	587.21 ± 0.34
280 K, 6530.4 kPa, x2 = 0.75	552.22 ± 0.35
280 K, 6972.3 kPa, x2 = 0.5	571.72 ± 0.35
280 K, 7009.3 kPa, x2 = 0.25	587.89 ± 0.34
280 K, 7012.2 kPa, x2 = 0.75	553.04 ± 0.36
300 K, 990 kPa, x2 = 0.5	536.26 ± 0.29
300 K, 1002.3 kPa, x2 = 0.75	514.75 ± 0.3
300 K, 1005.5 kPa, x2 = 0.25	555.26 ± 0.28
300 K, 1504.4 kPa, x2 = 0.25	556.28 ± 0.29
300 K, 1504.7 kPa, x2 = 0.75	516.09 ± 0.3
300 K, 1541.4 kPa, x2 = 0.5	537.52 ± 0.3
300 K, 1950.9 kPa, x2 = 0.5	538.44 ± 0.3
300 K, 1972.1 kPa, x2 = 0.75	517.33 ± 0.31
300 K, 2002.5 kPa, x2 = 0.25	557.25 ± 0.3
300 K, 2461.4 kPa, x2 = 0.5	539.56 ± 0.31
300 K, 2497.9 kPa, x2 = 0.25	558.21 ± 0.3
300 K, 2507.7 kPa, x2 = 0.75	518.69 ± 0.31
300 K, 2946.2 kPa, x2 = 0.5	540.6 ± 0.31
300 K, 3009.2 kPa, x2 = 0.75	519.95 ± 0.32
300 K, 3012.5 kPa, x2 = 0.25	559.2 ± 0.31
300 K, 3505.6 kPa, x2 = 0.5	541.79 ± 0.32
300 K, 3507.9 kPa, x2 = 0.25	560.13 ± 0.31
300 K, 3511.5 kPa, x2 = 0.75	521.18 ± 0.33
300 K, 3998.7 kPa, x2 = 0.25	561.02 ± 0.32
300 K, 4015.9 kPa, x2 = 0.5	542.85 ± 0.33
300 K, 4017.5 kPa, x2 = 0.75	522.39 ± 0.33
300 K, 4511.3 kPa, x2 = 0.25	561.97 ± 0.32

mass density [kg/m3]
Conditions	240 K	260 K	280 K
x2 = 0.25	–	600.21 ± 0.26	577.86 ± 0.27
x2 = 0.5	606.37 ± 0.26	584.58 ± 0.27	560.91 ± 0.27
x2 = 0.75	589.36 ± 0.27	566.05 ± 0.27	541.14 ± 0.28
